In data set [1] the target is T1, Heat shock protein HSP90 (Homo sapiens, UniProt P07900+P08238). Description: Inhibition of HSP90 in human HCT116 cells assessed as downregulation of AKT protein expression after 24 hrs by Western blot analysis. It counts as cell-based.
Data set [2] has as its target T1, Heat shock protein HSP90. Description: Inhibition of HSP90 in human A549 cells assessed as upregulation of HSP70 expression at 0.2 to 5 uM after 24 hrs by Western blot analysis. It counts as cell-based.
Data set [3] concerns the target T1, Heat shock protein HSP90. Nature of the data set: Inhibition of HSP90 in human A549 cells assessed as downregulation of AKT protein expression after 24 hrs by Western blot analysis. It counts as cell-based. (A western blot detects proteins with antibodies after separation by electrophoresis.)
A short description of data set [4]: Toxicity in lung of mouse xenografted with human Capan1 cells assessed as pathological changes at 50 mg/kg, iv for every 2 days measured at 2 hrs post-last dose by H and E staining based analysis. The following applies: in vivo. The format is organism-based. Background: In xenograft studies the graft and the host belong to different species.
Data set [5] can be described thus: Prodrug release in human A549 cells assessed as increase in 7-ethyl-10-hydroxycamptothecin level at 5 uM after 12 hrs by LC-MS/MS analysis. It counts as ADME, cell-based. The following applies: a549, 12 h.
The test system of the next data set is Mus musculus. Nature of the data set: In vivo inhibition of topoisomerase 1 in mouse xenografted with human Capan1 cells assessed as increase in phosphorylated KAP1 expression at 50 mg/kg, iv for every 2 days measured at 2 hrs post last dose by Western blot analysis. It counts as functional, organism-based.
Data set [6] is described as follows: Prodrug release in tumor of mouse xenografted with human HCT116 cells assessed as increase in 7-ethyl-10-hydroxycamptothecin level by measuring retention time at 50 mg/kg, iv administered as single dose by LC-MS/MS analysis. The format is ADME, organism-based, Neoplasm. The following applies: in vivo.
Another data set relates to CAPAN-1. Nature of the data set: Antitumor activity against human Capan1 cells xenografted in mouse assessed as tumor cells with nuclear lysis at 36 mg/kg, iv for every 2 days measured at 2 hrs post last dose by H and E staining based analysis. It counts as functional, organism-based.
A short description of data set [7]: Drug uptake in human HL7702 cells at 5 uM after 6 hrs in presence of HSP90 ATPase competitive inhibitor, NVP-AUY922 by confocal laser scanning microscopic analysis. It counts as ADME, cell-based. To be noted: l02, 6 h.
Data set [8] is described as follows: Toxicity in liver of mouse xenografted with human Capan1 cells assessed as pathological changes at 50 mg/kg, iv for every 2 days measured at 2 hrs post last dose by H and E staining based analysis. It counts as organism-based. The following applies: in vivo.
Data set [9] is described as follows: Drug uptake in mouse plasma xenografted with human HCT116 cells assessed as increase in drug level with longer half life at 50 mg/kg, iv administered as single dose and measured after 30 mins to 72 hrs by LC-MS/MS analysis. It counts as ADME, organism-based. The following applies: in vivo.
A short description of data set [10]: Prodrug release in human A549 cells assessed as increase in 7-ethyl-10-hydroxycamptothecin level at 5 uM after 1 to 12 hrs by LC-MS/MS analysis. It counts as ADME, cell-based. The following applies: a549, 5 µM.

Calls of active or inactive are those of the source. The calls are words filed in the database; no cut-off is given here.

Consider `CCc1c2c(nc3ccc(OC(=O)N4CCC(NC(=O)c5noc(-c6cc(C(C)C)c(O)cc6O)c5-c5ccc(CN6CCOCC6)cc5)CC4)cc13)-c1cc3c(c(=O)n1C2)COC(=O)[C@]3(O)CC`, for which the inhibition result on Heat shock protein HSP90 [1] and at Heat shock protein HSP90 [3] was “Dose-dependent effect” each time. Further, the inhibition entry at Heat shock protein HSP90 [2] was “Active”.
As for `CCc1c2c(nc3ccc(O)cc13)-c1cc3c(c(=O)n1C2)COC(=O)[C@@]3(CC)OC(=O)CNC(=O)c1noc(-c2cc(C(C)C)c(O)cc2O)c1-c1ccc(CN2CCOCC2)cc1`, the Activity entry in [4] and in [8] was “Non-Toxic” each time. Further, the Drug metabolism result in data set [5] and in data set [10] was “Metabolite_Detected” in each case. In the data set on Mus musculus, the inhibition entry was “Active”. In addition, the Retention_time in [6] worked out at 72 h. Moreover, the result in the data set on CAPAN-1 was Active. Further, the results for the Drug uptake result in data set [7] and in data set [9] were “Not Active” and “Active”, respectively.
